Results: US11338040B2, “Immunomodulatory compounds” (Leidos, Inc., priority 2020, dated 2022)
pIC50: −log10 of the molar value. Non-standard residues stand in square brackets, D forms with d. Residues, ends and D or L forms follow the SMILES beside them. PEG4 = NCCOCCOCCOCCOCCC(=O)O

Legend:
[1] = target: T1, PD1 (Homo sapiens, UniProt Q15116); assay: PD1/PDL1 cell reporter assay (PathHunter, Jurkat PD1/SHP1 EFC cells co-incubated with PDL1-presenting U2OS cells); type: cell-based; conditions: peptide conjugates at 3.6 μM, 10.8 μM, 32.5 μM in triplicate; FIG. 10
T1 construct: expressed in transfected cells; host or cells: Jurkat cells (PD1-EFC and SHP1-EFC) co-cultured with PDL1-presenting U2OS cells
T1 sequence (Q15116 25-288): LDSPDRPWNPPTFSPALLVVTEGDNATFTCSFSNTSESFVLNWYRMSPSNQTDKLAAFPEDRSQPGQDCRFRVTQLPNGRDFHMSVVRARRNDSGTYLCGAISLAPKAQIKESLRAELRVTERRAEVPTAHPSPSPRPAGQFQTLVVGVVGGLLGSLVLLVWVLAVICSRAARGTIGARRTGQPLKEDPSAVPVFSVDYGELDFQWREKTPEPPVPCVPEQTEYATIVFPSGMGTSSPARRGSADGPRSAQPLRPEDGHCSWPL
Description: Jurkat cells expressing PD1 and SHP1 proteins, each fused to a fragment of enzyme fragment complementation (EFC) system, were co-incubated with PDL1-presenting U2OS cells. […] Cells in co-culture were incubated at room temperature (RT) for 2 h (PD1 assay). The assay signal was generated using the PathHunter Bioassay Detection kit. Microplates were read following signal generation using a PerkinElmer ENVISION™ instrument for chemiluminescent signal detection. Inhibitory peptides or antibodies added to the culture result in reduction of light signal. The degree of inhibition was calculated using the following formula: Percent inhibition=100%×[1−(mean RLU of test sample−mean RLU of vehicle control)/mean RLU of EC80 control−mean RLU of vehicle control)].
Peptide conjugates BT1-BT11 were tested at three concentrations: 3.6 μM, 10.8 μM, 32.5 μM in triplicate wells. peptide conjugates were dissolved in DMSO and serially diluted in assay buffer. The highest concentration that can be tested in this assay was 32.5 μM peptide conjugate (1% DMSO).
Peptides LD12 (SEQ ID NO:9), LD10 (SEQ ID NO:1), and LD16 (SEQ ID NO:10) were tested at three concentrations: 11 μM, 33 μM, 100 μM in triplicate. LD peptides were dissolved in water and serially diluted in assay buffer. RLUs were measured at the end of the assay, and % Inhibition (% Efficiency) was calculated using the formula above.

[2] = Precipitation on dilution in assay buffer; type: physicochemical; conditions: 100 μM final in assay buffer
Description: FIG. 1 is a graph reporting the results of a TR-FRET assay testing the ability of peptide conjugates and individual peptides to affect the interaction between LAG3 and MHC-II. * indicates precipitation when diluted in assay buffer at 1 mM (100 μM final).

[3] = target: T2, interaction between LAG3 and MHC-II (Homo sapiens, UniProt P18627); assay: HTRF (TR-FRET) LAG3/MHC-II binding assay; conditions: for response in dilution curve (HTRF signal): 10-fold dilutions starting at 100 μM or 10 μM, FIGS. 2A-9B; for effect on HTRF signal: tested at 100 μM, 10 μM, and 1 μM, FIG. 1
T2 construct: purchased Cisbio US Inc
T2 sequence (P18627 23-450 limits assumed): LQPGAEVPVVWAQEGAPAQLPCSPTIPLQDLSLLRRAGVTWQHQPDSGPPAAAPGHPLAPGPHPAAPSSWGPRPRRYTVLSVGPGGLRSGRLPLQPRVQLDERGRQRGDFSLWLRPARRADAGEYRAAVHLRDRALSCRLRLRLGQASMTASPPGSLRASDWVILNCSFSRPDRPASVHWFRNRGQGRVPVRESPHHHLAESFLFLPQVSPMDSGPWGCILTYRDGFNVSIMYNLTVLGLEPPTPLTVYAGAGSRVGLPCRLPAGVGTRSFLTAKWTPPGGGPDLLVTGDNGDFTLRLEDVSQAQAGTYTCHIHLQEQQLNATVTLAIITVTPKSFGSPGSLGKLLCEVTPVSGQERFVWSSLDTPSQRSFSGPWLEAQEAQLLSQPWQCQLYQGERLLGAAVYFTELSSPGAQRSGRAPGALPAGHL
Source text: A Homogeneous Time-resolved Fluorescence (HTRF) LAG3/MHC-II binding assay (Cisbio US Inc.) was used to measure the interaction between MHC-II and LAG3 in the presence of various peptides and peptide conjugates. In this assay, the interaction between Tag1-LAG3 and Tag2-MHC-II is detected by using anti-Tag1-Terbium (HTRF donor) and anti-Tag2-XL665 (HTRF acceptor). When the donor and acceptor antibodies are brought into close proximity due to LAG3 and MHC-II binding, excitation of the donor antibody triggers fluorescent resonance energy transfer (FRET) towards the acceptor antibody, which in turn emits specifically at 665 nm. This specific signal is directly proportional to the extent of LAG3/MHC-II interaction. Thus, an agent that blocks the interaction between LAG3 and MHC-II will cause a reduction in HTRF ratio.
Each of peptide conjugates BT1, BT2, BT3, BT4, BT5, BT6, BT7, BT8, BT9, and peptides LG11 (LAG3-11), LAG3-56 (SEQ ID NO:5), and LAG3-42 (SEQ ID NO:6) was tested at 3 concentrations: 100 μM, 10 μM, and 1 μM. The dashed-lines represent the HTRF ratio readout of a control ovalbumin peptide (OVA, SEQ ID NO:7) (baseline) at the respective concentrations.
peptide conjugates and LG peptides were tested in full dilution curves in the LAG3:MHCII TR-FRET Assay described above to estimate IC50. peptide conjugates were tested starting at 100 μM or 10 μM. LG peptides were tested starting at 100 μM.

CC[C@H](C)[C@H](NC(=O)[C@H](CO)NC(=O)[C@@H](NC(=O)[C@H](CC(C)C)NC(=O)[C@H](CCCNC(=N)N)NC(=O)[C@@H](NC(=O)[C@H](CC(N)=O)NC(=O)[C@@H](NC(=O)[C@@H](NC(=O)[C@H](C)NC(=O)[C@@H]1CCCN1C(=O)[C@H](CC(C)C)NC(=O)[C@H](CO)NC(=O)[C@H](CCC(N)=O)NC(=O)CCOCCOCCOCCOCCNC(=O)[C@H](CO)NC(=O)[C@H](C)NC(=O)[C@@H]1CCCN1C(=O)[C@H](Cc1c[nH]c2ccccc12)NC(=O)[C@H](CCC(=O)O)NC(=O)[C@@H]1CCCN1C(=O)[C@H](CC(C)C)NC(=O)[C@H](Cc1c[nH]cn1)NC(=O)[C@H](Cc1c[nH]c2ccccc12)NC(=O)[C@@H]1CCCN1C(=O)[C@H](CCC(=O)O)NC(=O)[C@H](CC(=O)O)NC(=O)[C@H](Cc1c[nH]c2ccccc12)NC(=O)[C@H](Cc1c[nH]c2ccccc12)NC(=O)[C@H](CCC(N)=O)NC(=O)CNC(=O)[C@@H](NC(=O)CNC(=O)[C@H](CCC(=O)O)NC(=O)[C@@H](N)Cc1c[nH]c2ccccc12)[C@@H](C)O)[C@@H](C)O)[C@@H](C)CC)C(C)C)[C@@H](C)O)C(=O)N[C@@H](CCC(N)=O)C(=O)NCC(=O)N[C@H](C(=O)N[C@H](CO)C(N)=O)[C@@H](C)O [BT5] (H-WEGTGQWWDEPWHLPEWPAS[PEG4]QSLPATINVRLTSIQGT[dS]-NH2)
inhibition of PD1 activity (percent inhibition of light signal) [1]: did not show inhibition at any of the tested concentrations
precipitation in assay buffer [2]: precipitation occurred at 100 μM
response in dilution curve (HTRF signal) [3]: reduced the HTRF signal at 10 μM
effect on HTRF signal [3]: reduced the HTRF signal

CC[C@H](C)[C@H](NC(=O)[C@H](CO)NC(=O)[C@@H](NC(=O)[C@H](CC(C)C)NC(=O)[C@H](CCCNC(=N)N)NC(=O)[C@@H](NC(=O)[C@H](CC(N)=O)NC(=O)[C@@H](NC(=O)[C@@H](NC(=O)[C@H](C)NC(=O)[C@@H]1CCCN1C(=O)[C@H](CC(C)C)NC(=O)[C@H](CO)NC(=O)[C@H](CCC(N)=O)NC(=O)CCOCCOCCOCCOCCNC(=O)[C@H](Cc1c[nH]c2ccccc12)NC(=O)[C@H](CCC(=O)O)NC(=O)CNC(=O)[C@@H](NC(=O)CNC(=O)[C@H](CCC(N)=O)NC(=O)[C@H](Cc1c[nH]c2ccccc12)NC(=O)[C@H](Cc1c[nH]c2ccccc12)NC(=O)[C@H](CC(=O)O)NC(=O)[C@H](CCC(=O)O)NC(=O)[C@@H]1CCCN1C(=O)[C@H](Cc1c[nH]c2ccccc12)NC(=O)[C@H](Cc1c[nH]cn1)NC(=O)[C@H](CC(C)C)NC(=O)[C@@H]1CCCN1C(=O)[C@H](CCC(=O)O)NC(=O)[C@H](Cc1c[nH]c2ccccc12)NC(=O)[C@@H]1CCCN1C(=O)[C@H](C)NC(=O)[C@@H](N)CO)[C@@H](C)O)[C@@H](C)O)[C@@H](C)CC)C(C)C)[C@@H](C)O)C(=O)N[C@@H](CCC(N)=O)C(=O)NCC(=O)N[C@H](C(=O)N[C@H](CO)C(N)=O)[C@@H](C)O [BT4] (H-SAPWEPLHWPEDWWQGTGEW[PEG4]QSLPATINVRLTSIQGT[dS]-NH2)
inhibition of PD1 activity (percent inhibition of light signal) [1]: did not show inhibition at any of the tested concentrations
precipitation in assay buffer [2]: precipitation occurred at 100 μM
response in dilution curve (HTRF signal) [3]: reduced the HTRF signal at 10 μM
effect on HTRF signal [3]: reduced the HTRF signal

H2N-(dS)TGQISTLRVNITAPLSQ^1-PEG4-SAPWEPLHWPEDWWQGTGEW^3-amide [BT1]
inhibition of PD1 activity (percent inhibition of light signal) [1]: did not show inhibition at any of the tested concentrations
precipitation in assay buffer [2]: precipitation occurred at 100 μM
response in dilution curve (HTRF signal) [3]: reduced the HTRF signal at 10 μM
effect on HTRF signal [3]: reduced the HTRF signal

CC[C@H](C)[C@H](NC(=O)[C@H](CCC(N)=O)NC(=O)CNC(=O)[C@@H](NC(=O)[C@@H](CO)NC(=O)CCOCCOCCOCCOCCNC(=O)[C@H](Cc1c[nH]c2ccccc12)NC(=O)[C@H](CCC(=O)O)NC(=O)CNC(=O)[C@@H](NC(=O)CNC(=O)[C@H](CCC(N)=O)NC(=O)[C@H](Cc1c[nH]c2ccccc12)NC(=O)[C@H](Cc1c[nH]c2ccccc12)NC(=O)[C@H](CC(=O)O)NC(=O)[C@H](CCC(=O)O)NC(=O)[C@@H]1CCCN1C(=O)[C@H](Cc1c[nH]c2ccccc12)NC(=O)[C@H](Cc1c[nH]cn1)NC(=O)[C@H](CC(C)C)NC(=O)[C@@H]1CCCN1C(=O)[C@H](CCC(=O)O)NC(=O)[C@H](Cc1c[nH]c2ccccc12)NC(=O)[C@@H]1CCCN1C(=O)[C@H](C)NC(=O)[C@@H](N)CO)[C@@H](C)O)[C@@H](C)O)C(=O)N[C@@H](CO)C(=O)N[C@H](C(=O)N[C@@H](CC(C)C)C(=O)N[C@@H](CCCNC(=N)N)C(=O)N[C@H](C(=O)N[C@@H](CC(N)=O)C(=O)N[C@H](C(=O)N[C@H](C(=O)N[C@@H](C)C(=O)N1CCC[C@H]1C(=O)N[C@@H](CC(C)C)C(=O)N[C@@H](CO)C(=O)N[C@@H](CCC(N)=O)C(N)=O)[C@@H](C)O)[C@@H](C)CC)C(C)C)[C@@H](C)O [BT2]
inhibition of PD1 activity (percent inhibition of light signal) [1]: did not show inhibition at any of the tested concentrations
precipitation in assay buffer [2]: precipitation occurred at 100 μM
response in dilution curve (HTRF signal) [3]: reduced the HTRF signal at 10 μM
pIC50 ([3]; LAG3:MHCII TR-FRET full dilution curves): 5.07
effect on HTRF signal [3]: reduced the HTRF signal
